Patent publication US5498605A (priority 1994, dated 1996)

Assays:
A2 adenosine receptors = A2 adenosine receptors (Rattus norvegicus, UniProt P30543); experiment: Inhibition of [3H]CGS 21680 binding to A2 receptors in rat striatal membranes; set-up: Rat cerebral cortical membranes and striatal membranes were prepared; from tissue; host or cells: rat striatal membranes; conditions: rat striatum
Description: Membranes (about 80 μg protein, 5 mg wet weight, per tube) were incubated for one hour at 25° C. in a total volume of 1 mL. […] Filtration was carried out using a Brandel Cell Harvester, as above.
(§1) At least seven different concentrations spanning four orders of magnitude, adjusted appropriately for the IC50 of each compound, were used.

lipolysis [1] = experiment: In vivo lipolysis (serum glycerol) in rats; set-up: species or system rat; conditions: for lowering of serum glycerol levels: at 60 min
Description: Sprague Dawley rats (200-250 g) were fasted overnight. A blood sample was taken from the tail vein 10 sec before the subcutaneous injection of the drug in vehicle (10% DMSO in saline). Additional blood samples were taken from the tail vein at 30, 60 and 90 min post-injection and were kept on ice and centrifuged (1000 Xg) within one-half hour. A perchloric acid extract (3%) of plasma was neutralized with potassium hydroxide, 3-[N-morpholino]propanesulfonic acid, and then assayed for glycerol as described in Eggstein, et al., Methods of Enzymatic Analysis (H. U. Bermeyer ed., 1974), pp. 1825-1831.

A1 adenosine receptors = target: T1, A1 adenosine receptors (Rattus norvegicus, UniProt P25099); experiment: Inhibition of [3H]N6-phenylisopropyladenosine binding to A1 adenosine receptors in rat cerebral cortex membranes
T1 construct: Rat cerebral cortical membranes and striatal membranes were prepared; from tissue; host or cells: rat cerebral cortical membranes
T1 sequence (P25099 1-326): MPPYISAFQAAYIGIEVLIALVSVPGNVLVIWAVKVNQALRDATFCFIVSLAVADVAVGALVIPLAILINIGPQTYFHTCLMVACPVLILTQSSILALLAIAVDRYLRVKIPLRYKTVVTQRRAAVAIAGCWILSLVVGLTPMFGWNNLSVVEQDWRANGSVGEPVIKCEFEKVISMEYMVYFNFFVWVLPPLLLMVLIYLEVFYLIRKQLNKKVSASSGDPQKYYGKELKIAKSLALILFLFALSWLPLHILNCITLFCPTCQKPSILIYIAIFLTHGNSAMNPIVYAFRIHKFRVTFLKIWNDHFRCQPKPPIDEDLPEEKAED
Description: Bound and free radioligand were separated by addition of 4 mL of a solution containing 50 mM Tris hydrochloride, at pH 7.4 at 5° C., followed by vacuum filtration using a Brandel Cell Harvester (Brandel, Gaithersburg, Md.) and a Whatman GF/B glass fiber filter with additional washes totaling 12 mL of buffer.
as §1

lipolysis [2] = experiment: In vivo lipolysis (serum glycerol) in rats; set-up: species or system rat; conditions: post i.p. injection
[3] = Rectal temperature in rats; type: in vivo, rat; conditions: Sprague Dawley rats, vehicle caused small rise (approximately 1° C.)
Description: Rectal temperature was then recorded.

[4] = Sedation in rats after i.p. injection; type: in vivo, rat; conditions: 25 and 50 mg/kg i.p., during one hour
[5] = test system: synaptic potentials (fEPSPs) in CA1 region of hippocampal slices; experiment: Inhibition of synaptic potentials (fEPSPs) in hippocampal slices (species not specified for this result); set-up: species or system adult rats and gerbils
Description: Hippocampal slices were prepared from adult rats (200-300 g) and gerbils as described in Lee et al., Electrophysiology of Isolated Mammalian CNS Preparation (G. A. Kerkut and H. V. Wheat, eds. 1981), pp. 189-211. Field excitatory postsynaptic potentials (fEPSPs) were recorded in the stratum radiatum of the CA1 region in response to stimulation of Schaffer collateral/commisural afferents. Slices were superfused continuously with artificial cerebrospinal fluid (ACSF; described in Lee et al., and fEPSPs were sampled every 15 seconds.
The amplitude of fEPSPs responses was measured on-line and plotted over the time course of each experiment. The magnitude of the inhibitory effect of a compound on fEPSP amplitude was expressed as the percentage inhibition, according to the formula: Percentage inhibition=[(Amplitude in ACSF only--Amplitude in drug)[…]Amplitude in ACSF only]×100.

Sequence of A2 adenosine receptors (P30543 whole entry): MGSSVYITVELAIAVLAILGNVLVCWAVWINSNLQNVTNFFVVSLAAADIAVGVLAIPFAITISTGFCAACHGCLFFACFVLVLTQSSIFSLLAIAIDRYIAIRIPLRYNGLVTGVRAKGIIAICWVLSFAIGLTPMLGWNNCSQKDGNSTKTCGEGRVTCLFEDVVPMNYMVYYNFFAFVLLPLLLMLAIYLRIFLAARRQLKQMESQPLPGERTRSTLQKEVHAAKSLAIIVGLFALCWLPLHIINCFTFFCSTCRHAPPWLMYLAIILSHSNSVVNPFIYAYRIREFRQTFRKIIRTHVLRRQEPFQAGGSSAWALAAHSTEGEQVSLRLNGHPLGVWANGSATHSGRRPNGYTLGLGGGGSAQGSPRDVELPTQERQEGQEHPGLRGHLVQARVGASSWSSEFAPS

SMILES: O=S(=O)(O)c1ccc(CCCNc2ncnc3c2ncn3[C@@H]2O[C@H](CO)[C@@H](O)[C@H]2O)cc1 [3-p-sulfophenylpropyl, N^6-3-p-sulfophenylpropyladenosine]
- affinity for the A2 striatal receptors (in words) (A2 adenosine receptors): demonstrated affinity
- lowering of serum glycerol levels (lipolysis [1]; 0.5 mg/kg): 30%
- lowering of serum glycerol levels (lipolysis [1]; 1.0 mg/kg): 34%
- effect on serum glycerol levels (inhibition of lipolysis, in words) (lipolysis [1]; doses of 0.1-1.0 mmol/kg): lower serum glycerol levels
- Ki (A1 adenosine receptors; rat brain, vs 1.0 nM [3H]PIA, read-out: A1-Receptor Ki): 610 ± 39 nM
- affinity for the A1 cortical receptors (in words) (A1 adenosine receptors; rat cerebral cortex): demonstrated affinity
- time of maximum effect on serum glycerol (lipolysis [2]): 30 to 60 min
- rectal temperature ([3]; i.c.v.): caused rectal temperature depression
- rectal temperature ([3]; i.p.): caused rectal temperature depression
- sedation [4]: moderate sedation
- onset of action ([5]; compared with adenosine and CPA): slightly slower onset of action in this assay than adenosine itself, but a faster onset of action than CPA
- IC50 ([5]; hippocampal slices): 1700 nM
- agonist action ([5]; hippocampal slices): clearly acts as an agonist
